From US20230097753A1, “ALPHA-HYDROXYLATED FATTY-ACID METABOLITES, MEDICAL USES AND USE AS BIOMARKERS” (UNIVERSITAT DE LES ILLES BALEARS, priority 2020, published 2023)

Assay: Brain fatty acid levels in WT and 5xFAD mice after chronic oral treatment
Assay type: in vivo, mouse
Details: for Brain levels after treatment with DHA-H sodium salt: oral 5-200 mg/kg, 4 months
Protocol: FIG. 2. […] Brain levels of HPA (Al) or DHA (A2) (nmoles/mg of protein) are represented in the ordinate axis, with respect to treatment doses with the sodium salt of DHA-H (A1) and the sodium salt of DHA (A1 and A2) (mg/kg). A1: • animals WT; ∘ 5xFAD. A2: Black bars refer to WT animals and white bars to 5xFAD. The levels of HPA and DHA were determined in the brain of WT and 5xFAD mice after chronic administration of DHA-H sodium salt (4 months; 5 doses/week M-F; between 3 and 7 months of age; sacrifice at 7 months). HPA accumulates in the brain of both mouse strains similarly, depending on the dose of DHA-H sodium salt administered (A1: • r2=0.9292, p=0.0002; ∘ r2=0.9704, p<0.0001). […] Data are shown as mean±standard error, and statistical analysis was done by one-way ANOVA and Tukey multiple evaluation test: *p<0.05 compared to control (mice treated with vehicle). Therefore, when the prodrug DHA-H, in particular its sodium salt, is administered in healthy mice and transgenic models of Alzheimer's disease, a significant accumulation of HPA occurs at the brain level, without the presence of the prodrug (DHA-H) being detected, nor changes in endogenous levels of DHA. […] The number of total errors (B1), reference memory errors (RME) (B2) or working memory errors (WME) (B3), committed, are represented in the ordinate axis against the brain levels of HPA (nmol/mg of protein) in the abscissa axis. The cognitive assessment was done by testing the 8-arm radial labyrinth during the last month of treatment of the same animals shown in FIG. 2A. Individual experimental points from the entire study animal population were plotted and the data from the 5xFAD animals were adjusted to an inverse polynomial regression f(x)=y0+(a/x). The values of r^2 and p corresponding to the regression of each parameter are shown below: total errors, RME and WME versus the brain concentration of HPA: C1: r^2=0.9146 and p=0.0311; C2: r^2=0.9252 and p=0.0243; C3: r^2=0.7785 and p=0.0346. […]

| SMILES | Brain DHA levels after treatment | Brain levels after treatment with DHA-H sodium salt |
| --- | --- | --- |
| CCC=CCC=CCC=CCC=CCC=CCC=CCC(O)C(=O)O (stereo not drawn) [DHA-H, 2-hydroxy-drocosahexaenoic acid] | did not vary significantly | undetectable in the brain |
| CC/C=C\C/C=C\C/C=C\C/C=C\C/C=C\CCCCC(=O)O [HPA, (6Z,9Z,12Z,15Z,18Z)-heneicosa-6,9,12,15,18-pentaenoic acid] | – | dose-dependent brain accumulation |
